Source: the supplement of paper PMC13380429

Tests used:
Calu-3 [1] = test: drug sensitivity score (DSS) for viability; higher = more toxic; extreme values may be limits of the assay; settings: 72 h
U2OS [2] = test: as above; settings: 72 h
Vero E6 [3] = test: as above; settings: 72 h
Caco-2 [4] = test: as above; settings: 72 h
HepG2 [5] = test: as above; settings: 72 h
Calu-3 [6] = test: cell viability relative to DMSO; higher = less toxic; settings: 72 h
U2OS [7] = test: as above; settings: 72 h
Vero E6 [8] = test: as above; settings: 72 h
Caco-2 [9] = test: as above; settings: 72 h
HepG2 [10] = test: as above; settings: 72 h
Calu-3 [11] = test: relative viability EC50 (midpoint between 100% and the lowest measured viability); higher = less toxic; settings: 72 h
U2OS [12] = test: as above; settings: 72 h
Vero E6 [13] = test: as above; settings: 72 h
Caco-2 [14] = test: as above; settings: 72 h
HepG2 [15] = test: as above; settings: 72 h
[16] = test system: A549-ACE2 infected with SARS-CoV-2; test: cell count relative to DMSO; higher = less toxic; settings: 24 h
[17] = test system: A549-ACE2 infected with SARS-CoV-2; test: SARS-CoV-2 infection rate relative to DMSO; higher = more infection; settings: 24 h
A549-ACE2 = test: drug-induced phospholipidosis relative to tamoxifen; higher = more phospholipidosis
[18] = test system: A549-ACE2 infected with SARS-CoV-2; test: morphology score (similarity to uninfected cells); higher = more like uninfected cells; settings: 24 h

COCc1nc2c([nH]1)c(=O)n(C)c(=O)n2CC(C)C [MMPX]
Settings	drug sensitivity score	relative viability EC50 [µM]
Caco-2 [4]	0	–
Caco-2 [14]	–	> 10
Calu-3 [1]	0	–
Calu-3 [11]	–	> 10
HepG2 [5]	0	–
HepG2 [15]	–	> 10
U2OS [2]	0	–
U2OS [12]	–	> 10
Vero E6 [3]	0	–
Vero E6 [13]	–	> 10

cell viability [%]
Settings	Caco-2 [9]	Calu-3 [6]	HepG2 [10]	U2OS [7]	Vero E6 [8]
1 nM	91.8	102	98	95.8	97.8
10 nM	91.8	100	94	100	94.2
100 nM	96.9	98.1	101	96.4	99.2
1000 nM	95.7	103	94.9	104	97.5
10000 nM	96.3	96	100	98.2	99.2

O=c1cc(N2CCOCC2)oc2c(-c3cccc4c3sc3ccccc34)cccc12 [NU-7441]
Settings	drug sensitivity score	relative viability EC50 [µM]
Caco-2 [4]	5.6	–
Calu-3 [1]	1.4	–
HepG2 [5]	5.6	–
HepG2 [15]	–	1.87
Vero E6 [3]	7.2	–
Vero E6 [13]	–	1.87

Settings	SARS-CoV-2 infection rate, [17] [%]	cell count, [16] [%]	cell viability, Caco-2 [9] [%]	cell viability, Calu-3 [6] [%]	cell viability, HepG2 [10] [%]	cell viability, Vero E6 [8] [%]	morphology score, [18]
1 nM	–	–	109	101	108	104	–
10 nM	–	–	89.2	110	108	102	–
0.1 µM	101	96	–	–	–	–	-0.14
100 nM	–	–	100	98.7	116	102	–
0.3 µM	101	94	–	–	–	–	-0.23
1 µM	74	105	–	–	–	–	0.22
1000 nM	–	–	71.2	111	88.4	85.4	–
3 µM	38	98	–	–	–	–	0.53
10000 nM	–	–	56.9	61	32.7	14.4	–

drug-induced phospholipidosis [%], A549-ACE2
Settings	0.3 µM	0.833333 µM	3.33333 µM	6.66667 µM	10 µM	30 µM
24 h	-4.01	-8.02	17.6	23.6	28.1	26.9
48 h	-3.93	-5.23	26.4	–	–	–
72 h	-2.08	-7.5	–	–	–	–

COc1cccc2c1C(=O)c1c(O)c3c(c(O)c1C2=O)C[C@@](O)(C(C)=O)C[C@@H]3O[C@H]1C[C@H](N)[C@H](O)[C@H](C)O1 [daunorubicin]
Settings	drug sensitivity score	relative viability EC50 [µM]
Caco-2 [4]	15.8	–
Caco-2 [14]	–	0.145
Calu-3 [1]	16.9	–
Calu-3 [11]	–	0.177
HepG2 [5]	25.7	–
HepG2 [15]	–	0.059
U2OS [2]	20.7	–
U2OS [12]	–	0.187
Vero E6 [3]	10.8	–
Vero E6 [13]	–	0.963

cell viability [%]
Settings	Caco-2 [9]	Calu-3 [6]	HepG2 [10]	U2OS [7]	Vero E6 [8]
1 nM	86.3	99.7	108	96.6	93.7
10 nM	93.4	96	75.8	103	97.8
100 nM	74.6	69.3	43.3	80.9	87.9
1000 nM	29.8	29.4	2	2.4	54.3
10000 nM	28	16.1	0.2	0.1	4.6

CNS(=O)(=O)CCc1ccc2[nH]cc(C3CCN(C)CC3)c2c1 [naratriptan]
Settings	drug sensitivity score	relative viability EC50 [µM]
Caco-2 [4]	0	–
Caco-2 [14]	–	> 10
Calu-3 [1]	0	–
Calu-3 [11]	–	> 10
HepG2 [5]	0	–
HepG2 [15]	–	> 10
U2OS [2]	0	–
U2OS [12]	–	> 10
Vero E6 [3]	0	–
Vero E6 [13]	–	> 10

cell viability [%]
Settings	Caco-2 [9]	Calu-3 [6]	HepG2 [10]	U2OS [7]	Vero E6 [8]
1 nM	97.5	114	102	102	98.9
10 nM	105	94.1	98.2	106	100
100 nM	92.7	94.7	105	99.2	91.9
1000 nM	100	97	103	99.8	99.7
10000 nM	105	107	108	95.9	96.7

Cc1sc(C)c2c1CCC=C2c1c[nH]cn1 [TC-G-1000]
Settings	drug sensitivity score	relative viability EC50 [µM]
Caco-2 [4]	0	–
Caco-2 [14]	–	> 10
Calu-3 [1]	0	–
Calu-3 [11]	–	> 10
HepG2 [5]	0	–
HepG2 [15]	–	> 10
U2OS [2]	0	–
U2OS [12]	–	> 10
Vero E6 [3]	0	–
Vero E6 [13]	–	> 10

cell viability [%]
Settings	Caco-2 [9]	Calu-3 [6]	HepG2 [10]	U2OS [7]	Vero E6 [8]
1 nM	106	102	111	101	103
10 nM	93.3	97.3	108	96.8	96.4
100 nM	100	102	111	95.6	100
1000 nM	99.2	97.2	97	102	99.9
10000 nM	94.6	102	104	97	96.7

CCCCCCCCCCCCCCCC(=O)OC(C)C [isopropyl-palmitate]
Settings	drug sensitivity score	relative viability EC50 [µM]
Caco-2 [4]	0	–
Caco-2 [14]	–	> 10
Calu-3 [1]	0	–
Calu-3 [11]	–	> 10
HepG2 [5]	0	–
HepG2 [15]	–	> 10
U2OS [2]	0	–
U2OS [12]	–	> 10
Vero E6 [3]	0	–
Vero E6 [13]	–	> 10

cell viability [%]
Settings	Caco-2 [9]	Calu-3 [6]	HepG2 [10]	U2OS [7]	Vero E6 [8]
1 nM	101	106	92.2	102	96
10 nM	102	96.6	102	95.9	98.8
100 nM	109	94.3	99	97.5	99
1000 nM	90.8	93.8	94.8	93.2	98.8
10000 nM	90.4	101	95.8	97.7	97.2

CCCN[C@@H]1CCc2c(OC)cccc2[C@@H]1C [AJ76-(+)]
Settings	drug sensitivity score	relative viability EC50 [µM]
Caco-2 [4]	0	–
Caco-2 [14]	–	> 10
Calu-3 [1]	0	–
Calu-3 [11]	–	> 10
HepG2 [5]	0	–
HepG2 [15]	–	> 10
U2OS [2]	0	–
U2OS [12]	–	> 10
Vero E6 [3]	0	–
Vero E6 [13]	–	> 10

cell viability [%]
Settings	Caco-2 [9]	Calu-3 [6]	HepG2 [10]	U2OS [7]	Vero E6 [8]
1 nM	104	100	88.5	102	97.8
10 nM	97.8	95.9	100	105	104
100 nM	96.4	96.8	103	95.7	96.6
1000 nM	86.8	96	103	95.9	99.6
10000 nM	96.7	114	94	98.8	91.3
